Assay results reported in patent publication US7135337B2, “Insect expression vectors” (priority 1997, dated 2006).

Tests used:
Kc1 cell line = tested on: Kc1 cell line
Procedure: (§1) The dipteran (D. melanogaster) cell lines Kc1 and SL2, and the lepidopteran cell lines Sf9 (S. frugiperda), Ld652Y (L. dispar) and Cf1 (Choristoneura fumeferana) were tested for sensitivity to Zeocin in order to establish whether Zeocin was toxic in standard culture conditions to cell lines from these disparate insect orders. Zeocin is thought to exert its toxic effects by binding to DNA to induce double strand breaks. Such strand cleavage is thought to inhibit growth by disruption of DNA replication, which in turn interferes with subsequent cell division. Accordingly, cells already committed to division would not be expected to be affected by Zeocin until the next round of DNA replication; it would therefore be expected that cells treated with Zeocin may divide once, but will be unable to undergo further mitotic divisions since their DNA will not be intact.
(§2) In accordance with the current understanding of Zeocin's mechanism of action, the minimal inhibitory concentration of Zeocin is described herein as the amount of antibiotic required to limit the culture to one doubling. Growth curves for the determination of inhibitory concentrations of Zeocin in the Kc1, SL2 and Sf9 cell lines (FIG. 4a) were performed in rotating 1.5 ml microcentrifuge tubes containing 1 ml of TC-100 complete medium (pH=6.2) with 10% fetal bovine serum (Life Technologies, Gaithersburg, Md., U.S.A.), 0.5–1.0×10^6 cells and varying concentrations of Zeocin (obtained from Invitrogen, San Diego, Calif.) at 27° C. Samples were removed daily, stained with 0.4% trypan blue and the number of viable cells determined in quadruplicate using a hemocytometer. The minimal inhibitory Zeocin concentrations affecting Ld652Y and Cf1 cell lines were determined by seeding approximately 5,000 cells in a total volume of 200 μl TC-100 complete medium +10% fetal bovine serum+Zeocin into wells of 96 well microtitre plates.

Cf1 cell line = settings: TC-100 + 10% FBS
Procedure: as §1, §2

Ld652Y cell line = settings: Zeocin 10 μg/ml
Procedure: as §1, §2

Sf9 cell line = settings: TC-100 + 10% FBS, 27° C.
Procedure: as §1, §2

Procedure for SL2 cell line: The dipteran (D. melanogaster) cell lines Kc1 and SL2, and the lepidopteran cell lines Sf9 (S. frugiperda), Ld652Y (L. dispar) and Cf1 (Choristoneura fumeferana) were tested for sensitivity to Zeocin in order to establish whether Zeocin was toxic in standard culture conditions to cell lines from these disparate insect orders. […] Accordingly, cells already committed to division would not be expected to be affected by Zeocin until the next round of DNA replication; it would therefore be expected that cells treated with Zeocin may divide once, but will be unable to undergo further mitotic divisions since their DNA will not be intact.
In accordance with the current understanding of Zeocin's mechanism of action, the minimal inhibitory concentration of Zeocin is described herein as the amount of antibiotic required to limit the culture to one doubling. […] Samples were removed daily, stained with 0.4% trypan blue and the number of viable cells determined in quadruplicate using a hemocytometer.

Cc1c(N)nc([C@H](CC(N)=O)NC[C@H](N)C(N)=O)nc1C(=O)N[C@H](C(=O)N[C@H](C)[C@@H](O)[C@H](C)C(=O)N[C@H](C(=O)NCCC1=N[C@@H](c2nc(C(=O)NCCCCN=C(N)N)cs2)CS1)[C@@H](C)O)[C@@H](O[C@@H]1O[C@@H](CO)[C@@H](O)[C@H](O)[C@@H]1O[C@H]1O[C@H](CO)[C@@H](O)[C@H](OC(N)=O)[C@@H]1O)c1cnc[nH]1 [Zeocin]
Zeocin concentration found to inhibit growth (Hi5 cell line): 800 µg/mL
Zeocin concentration that inhibited more than one round of cell division (Kc1 cell line; TC-100 + 10% FBS, 27° C.): greater than 50 μg/ml
effect on growth rate (Kc1 cell line; Zeocin 10 μg/ml): dramatic reductions in growth rates
Zeocin concentration required to completely inhibit further cell division (Cf1 cell line): at least 250 μg/ml
effect on growth rate (Ld652Y cell line): dramatic reductions in growth rates
Zeocin concentration required to completely inhibit further cell division (Sf9 cell line): at least 250 μg/ml
Zeocin concentration that inhibited more than one round of cell division (SL2 cell line; TC-100 + 10% FBS, 27° C.): > 75 mg/mL
effect on growth rate (SL2 cell line; Zeocin 10 μg/ml): dramatic reductions in growth rates
Zeocin concentration found to inhibit growth (C6/36 cell line): 250 µg/mL
